Data taken from patent US20240383867A1, “CRYSTALLINE FORMS OF ISOXAZOLINE COMPOUND” (ELANCO US, INC., priority 2021, published 2024).

Key:
[1] = hygroscopicity testing via dynamic vapor sorption (DVS); assay type: physicochemical; details: for hygroscopicity classification: DVS, class based on mass gain at 85% RH; for absorption of water (DVS): storage at 95% relative humidity for five hours
Experimental: Sorption isotherms were obtained using an SPS11-100n Sorptions Prufsystem from ProUmid (formerly Projekt Messtechnik). About 5 mg to about 20 mg of sample were placed into an aluminum sample plan on top of a microbalance and allowed to equilibrate at 50% relative humidity (RH) before starting the following applied measurement program. Humidity change rates of 5% per hour were used. The applied measurement program can be described as follows: • (1) 2 h at 50% RH • (2) 50→0% RH (5%/h); 5 h at 0% RH • (3) 0→95% RH (5%/h); 5 h at 95% RH • (4) 95→0% RH (5%/h); 5 h at 0% RH • (5) 0→95% RH (5%/h); 5 h at 95% RH • (6) 95→50% RH (5%/h); 2 h at 50% RH. The sample was recovered after completion of the isotherm and re-analyzed by XRPD. Hygroscopicity was classified based on the mass gain at 85% relative humidity (RH) relative to the initial mass as follows: deliquescent (sufficient water adsorbed to form a liquid), very hygroscopic (mass increase […]), hygroscopic (mass increase <15% but ≥2%), slightly hygroscopic (mass increase <2% but ≥0.2%), or non-hygroscopic (mass increase <0.2%).

[2] = assay type: physicochemical
Experimental: 53 mg of Sample 42 (Form A) and 47 mg of Sample (Form C) were suspended in 1 mL of an ethyl acetate/heptane (1:3) mixture at room temperature. After two hours of stirring at room temperature, one additional mL of the solvent mixture was added to the suspension. After another 1 hour of stirring, the suspension was seeded with Sample 42 and Sample 55 (about 10-20 mg). Further stirring was conducted at room temperature for one week. Then the suspension was filtered using a centrifugal unit filter (PTFE, 0.2 μm, 5000 rpm, room temperature).
The remaining substance from Sample 56 (approx. 42 mg) was further equilibrated in 0.5 mL of an ethyl acetate/heptane (1:3) mixture at room temperature After one month of stirring, the suspension was filtered using a centrifugal unit filter (PTFE, 0.2 μm, 5000 rpm, room temperature). […] The resulting Crystalline Form C of Example 27a is herein referred to as Sample 56A.
71 mg of Sample 42 (Form A) and 73 mg of Sample 55 (Form C) were suspended in 1 mL of an ethyl acetate/heptane (1:3) mixture at 60° C. After two hours of stirring at 60° C., one additional mL of the solvent mixture was added to the suspension. After another 1 hour of stirring, the suspension was seeded with Samples 42 and 55 (about 10-20 mg). Further stirring was conducted at 60° C. After four days of stirring, a solution with material on the glass side was obtained. Approx. […]

[3] = solubility in common organic solvents; assay type: physicochemical
[4] = system: fleas (Ctenocephalides felis); details: in vitro ingesting activity; cited from earlier work
[5] = in vivo; cited from earlier work

Row | SMILES | hygroscopicity classification [1] | absorption of water (DVS) [1] | relative stability of Form A versus Form C [2] | also measured
1 | Cc1cc(C2=NO[C@@](c3cc(C(F)(F)F)cc(Cl)c3F)(C(F)(F)F)C2)ccc1C(=O)NCC(=O)NCC(F)(F)F [Crystalline Form A, 2-methyl-N-[2-oxo-2-(2,2,2-trifluoroethylamino)ethyl]-4-[(5S)-5-[3-chloro-2-fluoro-5-(trifluoromethyl)phenyl]-5-(trifluoromethyl)-4H-isoxazol-3-yl]benzamide] | slightly hygroscopic (slightly hygroscopic (mass increase <2% but ≥0.2%)) | ~0.5% | stable form at room temperature | 
2 | Cc1cc(C2=NO[C@@](c3cc(C(F)(F)F)cc(Cl)c3F)(C(F)(F)F)C2)ccc1C(=O)NCC(=O)NCC(F)(F)F [Crystalline Form B, 2-methyl-N-[2-oxo-2-(2,2,2-trifluoroethylamino)ethyl]-4-[(5S)-5-[3-chloro-2-fluoro-5-(trifluoromethyl)phenyl]-5-(trifluoromethyl)-4H-isoxazol-3-yl]benzamide] |  | up to 1.2% |  | 
3 | Cc1cc(C2=NO[C@@](c3cc(C(F)(F)F)cc(Cl)c3F)(C(F)(F)F)C2)ccc1C(=O)NCC(=O)NCC(F)(F)F [Form C, 2-methyl-N-[2-oxo-2-(2,2,2-trifluoroethylamino)ethyl]-4-[(5S)-5-[3-chloro-2-fluoro-5-(trifluoromethyl)phenyl]-5-(trifluoromethyl)-4H-isoxazol-3-yl]benzamide] |  |  | stable form at 30° and above | 
4 | Cc1cc(C2=NO[C@@](c3cc(C(F)(F)F)cc(Cl)c3F)(C(F)(F)F)C2)ccc1C(=O)NCC(=O)NCC(F)(F)F [amorphous form of the compound of Formula 1] [2-methyl-N-[2-oxo-2-(2,2,2-trifluoroethylamino)ethyl]-4-[(5S)-5-[3-chloro-2-fluoro-5-(trifluoromethyl)phenyl]-5-(trifluoromethyl)-4H-isoxazol-3-yl]benzamide] | slightly hygroscopic (slightly hygroscopic (mass increase <2% but ≥0.2%)) | ~1.5% |  | solid form after DVS measurement (XRPD) ([1]; XRPD after DVS): No crystallization occurred; solubility in common organic solvents [3]: high solubility
5 | Cc1cc(C2=NO[C@@](c3cc(C(F)(F)F)cc(Cl)c3F)(C(F)(F)F)C2)ccc1C(=O)NCC(=O)NCC(F)(F)F [compound of Formula 1, 2-methyl-N-[2-oxo-2-(2,2,2-trifluoroethylamino)ethyl]-4-[(5S)-5-[3-chloro-2-fluoro-5-(trifluoromethyl)phenyl]-5-(trifluoromethyl)-4H-isoxazol-3-yl]benzamide] |  |  |  | EC50 [4]: < 1 ppm; half-life [5]: 50 days
